In US12162858B2, “Quinoline derivatives as inhibitors of AXL/MER RTK and CSF1R” (QURIENT CO., LTD., priority 2018, dated 2024) one finds Kd data, which are given here for 37 compounds.

The pKd is −log10 of the Kd, conventionally taken in molar units.

One assay has as its target T1, Axl (Homo sapiens, UniProt P30530).
T1 sequence (P30530 26-894): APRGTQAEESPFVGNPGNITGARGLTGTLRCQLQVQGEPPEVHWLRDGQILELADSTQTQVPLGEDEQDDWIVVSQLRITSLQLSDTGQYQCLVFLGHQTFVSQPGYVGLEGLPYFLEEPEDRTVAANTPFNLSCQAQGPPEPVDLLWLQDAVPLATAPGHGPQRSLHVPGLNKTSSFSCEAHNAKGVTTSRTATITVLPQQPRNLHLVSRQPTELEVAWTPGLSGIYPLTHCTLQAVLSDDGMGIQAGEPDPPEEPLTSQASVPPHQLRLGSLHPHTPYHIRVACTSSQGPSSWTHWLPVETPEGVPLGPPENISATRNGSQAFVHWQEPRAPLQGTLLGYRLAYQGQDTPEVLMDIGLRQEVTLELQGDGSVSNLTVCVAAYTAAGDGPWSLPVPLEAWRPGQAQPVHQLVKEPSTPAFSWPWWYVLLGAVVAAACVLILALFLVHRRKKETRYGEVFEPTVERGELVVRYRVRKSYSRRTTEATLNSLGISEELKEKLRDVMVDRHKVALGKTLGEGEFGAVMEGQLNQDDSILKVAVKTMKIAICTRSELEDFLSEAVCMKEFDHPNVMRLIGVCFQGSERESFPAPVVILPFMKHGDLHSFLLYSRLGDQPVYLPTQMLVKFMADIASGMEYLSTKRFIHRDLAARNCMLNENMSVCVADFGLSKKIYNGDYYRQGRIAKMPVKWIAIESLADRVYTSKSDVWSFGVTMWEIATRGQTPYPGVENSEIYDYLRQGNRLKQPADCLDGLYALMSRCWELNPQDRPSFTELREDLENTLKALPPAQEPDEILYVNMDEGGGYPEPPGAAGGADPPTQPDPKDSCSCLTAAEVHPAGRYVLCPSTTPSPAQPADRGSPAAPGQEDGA
Put plainly: LanthaScreen Eu kinase binding assay for Axl. As to conditions: read-out: Axl kinase binding activity (Kd). The method in brief: (§1)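 Competitive displacement of Alexa Fluor 647-labeled Tracer 236 from the kinase, with binding detected by TR-FRET with a Eu-labeled anti-GST antibody. Compounds were run as 8-step DMSO serial dilutions and incubated 1 h at room temperature. Kd was calculated relative to DMSO vehicle control wells.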

The next assay concerns the target T2, Mer (Homo sapiens, UniProt Q12866).
T2 construct: purchased Life Technologies
T2 sequence (Q12866 21-999): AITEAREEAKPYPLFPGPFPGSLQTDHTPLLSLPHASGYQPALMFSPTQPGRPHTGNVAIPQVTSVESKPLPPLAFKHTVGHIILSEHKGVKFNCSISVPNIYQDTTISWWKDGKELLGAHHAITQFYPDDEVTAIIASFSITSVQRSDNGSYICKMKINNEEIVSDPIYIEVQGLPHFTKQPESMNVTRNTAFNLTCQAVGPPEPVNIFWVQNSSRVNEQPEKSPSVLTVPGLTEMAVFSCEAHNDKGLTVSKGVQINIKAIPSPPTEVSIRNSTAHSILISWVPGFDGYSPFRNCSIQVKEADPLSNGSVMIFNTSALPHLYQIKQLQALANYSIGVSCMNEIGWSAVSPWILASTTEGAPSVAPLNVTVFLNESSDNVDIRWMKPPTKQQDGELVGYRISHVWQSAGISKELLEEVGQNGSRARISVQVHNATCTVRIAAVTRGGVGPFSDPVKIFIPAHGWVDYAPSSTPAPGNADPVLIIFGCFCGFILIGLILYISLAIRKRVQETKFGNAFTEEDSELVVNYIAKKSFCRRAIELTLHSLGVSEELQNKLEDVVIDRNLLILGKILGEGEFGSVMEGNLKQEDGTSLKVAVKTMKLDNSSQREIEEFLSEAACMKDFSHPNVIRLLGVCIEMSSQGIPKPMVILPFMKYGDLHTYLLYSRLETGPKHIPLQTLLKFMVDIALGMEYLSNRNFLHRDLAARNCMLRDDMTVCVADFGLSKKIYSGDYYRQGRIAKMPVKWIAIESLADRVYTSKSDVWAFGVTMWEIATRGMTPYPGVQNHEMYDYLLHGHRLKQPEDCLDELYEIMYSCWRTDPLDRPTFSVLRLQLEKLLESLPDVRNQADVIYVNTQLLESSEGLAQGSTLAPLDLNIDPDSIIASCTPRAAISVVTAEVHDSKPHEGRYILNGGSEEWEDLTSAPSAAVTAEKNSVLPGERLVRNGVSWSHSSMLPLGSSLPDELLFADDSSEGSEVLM
Briefly: LanthaScreen Eu kinase binding assay for Mer. As to conditions: read-out: Mer kinase binding activity (Kd). The method in brief:
as §1

pKd: −log10 of the molar value.

For `CCCn1cc(OCC2CCC2)c(C(=O)Nc2ccc(Oc3ccnc4cc(OC)c(OC(F)(F)F)cc34)cn2)n1` [Compound 167], the pKd at Axl and on Mer was above 7.00 throughout.

For the compound `CCCn1cc(OCCN(C)C)c(C(=O)Nc2ccc(Oc3ccnc4cc(OC)c(OC)cc34)cn2)n1` [Compound 177], the pKd on Axl is above 7.00; on Mer, 6.30 to 7.00.

On to `COc1cc2nccc(Oc3ccc(NC(=O)c4nn(CC5CCC5)cc4OCC(F)(F)F)nc3)c2cc1OC` [Compound 42], for which the pKd at Axl and at Mer was above 7.00 throughout.

In the case of `CCCn1cc(OCC(F)(F)F)c(C(=O)Nc2ccc(Oc3ccnc4cc(OC)c(OC)cc34)nn2)n1` [Compound 32], the pKd on Axl and at Mer was above 7.00 in each case.

Turning to `COc1cc2nccc(Oc3ccc(NC(=O)c4nn(C5CCCCC5)cc4OCC(F)(F)F)nc3)c2cc1OC` [Compound 69], the negative logarithm of the Kd (pKd) on Axl and at Mer was above 7.00 in each case.

As to `COc1cc2nccc(Oc3ccc(NC(=O)c4nn(CCC(F)(F)F)cc4OCC4CCC4)nc3)c2cc1OC` [Compound 166], the pKd at Axl and on Mer was above 7.00 throughout.

Consider `COc1cc2nccc(Oc3ccc(NC(=O)c4nn(CC(C)(F)F)cc4OCC(F)(F)F)nc3)c2cc1OC` [Compound 64], for which the negative-log Kd (pKd) on Axl and on Mer was above 7.00 each time.

Turning to `COc1cc2nccc(Oc3ccc(NC(=O)c4nn(CC(C)C)cc4OCC(F)(F)F)cc3C)c2cc1OC` [Compound 58], the pKd on Axl and on Mer was above 7.00 throughout.

Consider `COc1cc2nccc(Oc3ccc(NC(=O)c4nn(C)cc4OCC(F)(F)F)cc3C)c2cc1OC` [Compound 37], for which the pKd at Axl was 6.30 to 7.00; at Mer it was above 7.00.

In the case of `COc1cc2nccc(Oc3ccc(NC(=O)c4nn(C5CC5)c(C(C)=O)c4OCC(F)(F)F)nc3)c2cc1OC` [Compound 3], the pKd on Axl and on Mer was above 7.00 throughout.

In the case of `CCCn1cc(OCC(F)(F)F)c(C(=O)Nc2ccc(Oc3ccnc4cc(OC)c(OC)cc34)c(F)c2)n1` [Compound 25], the pKd at Axl and on Mer was above 7.00 throughout.

Consider `COc1cc2nccc(Oc3ccc(NC(=O)c4nn(CCO)cc4OCC(F)(F)F)c(F)c3)c2cc1OC` [Compound 46], for which the pKd at Axl and on Mer was above 7.00 throughout.

With `COc1cc2nccc(Oc3ccc(NC(=O)c4nn(C)cc4OCC(F)(F)F)nc3)c2cc1OC` [Compound 33], the pKd at Axl and at Mer was above 7.00 in each case.

On to `COCCn1cc(OCC(F)(F)F)c(C(=O)Nc2ccc(Oc3ccnc4cc(OC)c(OC)cc34)c(F)c2)n1` [Compound 54], for which the pKd on Axl and on Mer was above 7.00 in each case.

On to `CCCCn1cc(OCC(F)(F)F)c(C(=O)Nc2ccc(Oc3ccnc4cc(OC)c(OC)cc34)cn2)n1` [Compound 36], for which the pKd at Axl and at Mer was above 7.00 throughout.

For `COc1cc2nccc(Oc3ccc(NC(=O)c4nn(CCOC5CCC5)cc4OCC(F)(F)F)nc3)c2cc1OC` [Compound 65], the pKd on Axl and on Mer was above 7.00 in each case.

For the compound `COc1cc2nccc(Oc3ccc(NC(=O)c4nn(C5COC5)cc4OCC(F)(F)F)nc3)c2cc1OC` [Compound 66], the pKd on Axl and at Mer was above 7.00 each time.

For the compound `CCCn1cc(NCC(F)(F)F)c(C(=O)Nc2ccc(Oc3ccnc4cc(OC)c(OC)cc34)cn2)n1` [Compound 23], the pKd on Axl and at Mer was above 7.00 in each case.

As to `COc1cc2nccc(Oc3ccc(NC(=O)c4nn(CC(C)=O)cc4OCC(F)(F)F)nc3)c2cc1OC` [Compound 19], the pKd at Axl and at Mer was above 7.00 in each case.

Take `COCCn1cc(OCC(F)(F)F)c(C(=O)Nc2ccc(Oc3ccnc4cc(OC)c(OC)cc34)cc2)n1` [Compound 61]: the pKd on Axl and at Mer was above 7.00 in each case.

In the case of `COc1cc2nccc(Oc3ccc(NC(=O)c4nn(C5CCCC5)cc4OCC(F)(F)F)cc3C)c2cc1OC` [Compound 57], the pKd on Axl and on Mer was above 7.00 in each case.

On to `COc1cc2nccc(Oc3ccc(NC(=O)c4nn(CC5CCN(C)C5)cc4OCC(F)(F)F)nc3)c2cc1OC` (centres unmarked) [Compound 169], for which the pKd at Axl and on Mer was above 7.00 in each case.

As for `CCCn1cc(OCCC(F)(F)F)c(C(=O)Nc2ccc(Oc3ccnc4cc(OC)c(OC)cc34)cn2)n1` [Compound 31], the pKd on Axl and at Mer was above 7.00 throughout.

On to `COc1cc2nccc(Oc3ccc(NC(=O)c4nn(C5CCNC5)cc4OCC(F)(F)F)c(F)c3)c2cc1OC` (centres unmarked) [Compound 74], for which the pKd at Axl and on Mer was 6.30 to 7.00 in each case.

For the compound `COc1cc2nccc(Oc3ccc(NC(=O)c4nn(CC5CCOC5)cc4OCC(F)(F)F)nc3)c2cc1OC` (centres unmarked) [Compound 44], the pKd at Axl and at Mer was above 7.00 throughout.

As to `COc1cc2nccc(Oc3ccc(NC(=O)c4nn(CCC#N)cc4OCC(F)(F)F)nc3)c2cc1OC` [Compound 39], the pKd on Axl and on Mer was above 7.00 throughout.

For the compound `COc1cc2nccc(Oc3ccc(NC(=O)c4nn(CC5CNC5)cc4OCC(F)(F)F)nc3)c2cc1OC` [Compound 73], the pKd at Axl and on Mer was 6.30 to 7.00 in each case.

As to `COc1cc2nccc(Oc3ccc(NC(=O)c4nn(C5CC5)cc4OCCC(F)(F)F)nn3)c2cc1OC` [Compound 173], the pKd at Axl and on Mer was above 7.00 each time.

Consider `CCCn1cc(OCC(F)(F)F)c(C(=O)Nc2ccc(Oc3ccnc4cc(OC)c(OC)cc34)cc2)n1` [Compound 38], for which the pKd at Axl and on Mer was above 7.00 each time.

For the compound `CCCn1cc(OCCC(O)CO)c(C(=O)Nc2ccc(Oc3ccnc4cc(OC)c(OC)cc34)cn2)n1` (centres unmarked) [Compound 15], the pKd at Axl and at Mer was above 7.00 in each case.

Turning to `COc1cc2nccc(Oc3ccc(NC(=O)c4nn(CC(C)C)cc4OCC(F)(F)F)nc3)c2cc1OC` [Compound 21], the pKd at Axl and on Mer was above 7.00 in each case.

With `COc1cc2nccc(Oc3ccc(NC(=O)c4cc(C5CC5)cnc4OCC(F)(F)F)nc3)c2cc1OC` [Compound 178], the pKd on Axl and on Mer was above 7.00 throughout.

Take `COc1cc2nccc(Oc3ccc(NC(=O)c4nn(C)cc4OCC(F)(F)F)cc3F)c2cc1OC` [Compound 50]: the pKd at Axl and on Mer was above 7.00 throughout.

As for `COc1cc2nccc(Oc3ccc(NC(=O)c4nn(CC(C)N)cc4OCC(F)(F)F)nc3)c2cc1OC` (centres unmarked) [Compound 63], the pKd at Axl and on Mer was above 7.00 in each case.

Turning to `COc1cc2nccc(Oc3ccc(NC(=O)c4nn(C[C@@H](C)O)cc4OCC(F)(F)F)nc3)c2cc1OC` [Compound 29], the pKd on Axl and on Mer was above 7.00 in each case.

As to `COc1cc2nccc(Oc3ccc(NC(=O)c4nn(C5CCOC5)cc4OCC(F)(F)F)cc3F)c2cc1OC` (centres unmarked) [Compound 55], the pKd on Axl and on Mer was above 7.00 throughout.

For `CCCn1cc(OCC(F)(F)F)c(C(=O)Nc2ccc(Oc3ccnc4cc(OC)c(OC)cc34)cc2F)n1` [Compound 28], the pKd at Axl and at Mer was above 7.00 in each case.
